We go through one substance from patent publication US7452869B2, “NIP3 family of proteins” (University of Manitoba, priority 2000, dated 2008).

For one data set, the system named is caspase 3-like proteases. Nature of the data set: caspase activation, colorigenic cleavage of Ac-DEVD-pNA by lysates of transfected 293T cells. The class given is biochemical. The conditions noted are these: 293T lysates harvested 1 to 36 hours posttransfection, versus untransfected controls. As to the method: Lysates were collected from 293T cells, transiently transfected via the CaP04 method (Ray, R., et al., 1999), at the indicated times. Aliquots of these lysates were run under Laemmli sodium dodecyl sulfate-polyacrylamide gel electrophoresis (SDS-PAGE) conditions and immunoblotted with mouse monoclonal anti-PARP. Results were visualized with an enhanced chemiluminescence system (Amersham Pharmacia Biotech, Amersham, U. K.). Transfected 293T cells were also assayed for caspase cleavage via colorigenic cleavage of the peptide Ac-DEVD-pNA (Biomol, Plymouth Meeting, Pa.), according to the conditions outlined by Quignon et al. (Scaffidi, C., et al., 1998), using 100 mM peptide. Where appropriate, samples were preincubated with 500 nM Ac-DEVD-fmk for 30 minutes at room temperature. Data were acquired on a Multiskan MCC/340 (Titertek) plate reader at 405 nm.

The next data set relates to PT pore. Description: mitochondrial Dcm (DiOC6), ROS production (HE) and PI staining by flow cytometry in BNIP3-transfected 293T cells. The format is cell-based. The conditions noted are these: 293T cells. As to the method: Changes in mitochondrial function were determined by incubating 10 6 293T cells, transiently transfected via the CaP04 method, with either 1 mM JC-1, 40 nM DiOC6, or 2 mM dihydroethidium (HE) (all from Molecular Probes, Inc.) for 30 minutes at 37° C. in Hanks' balanced salt solution (Gibco-BRL). Cells were scored using a FACScalibur flow cytometer (Becton-Dickinson, San Jose, Calif.), and data were analyzed on Celiquest software, version 3.1 (Becton-Dickinson). Controls were performed in the presence or absence of […] mClCCP (Sigma) or an excess of 30% H2 02. For inhibition experiments, cyclosporin A (Sigma) or bongkrekic acid (a gift from J. A. Duine, Delft University, Delft, The Netherlands) was added 2 hours prior to transfection. All cells were harvested 8 hours after transfection and stained with 40 nM DiOC6, 2 mM HE, or 1 mg of propidium iodide (PI) (Sigma) per ml. In all cases, samples were gated to exclude cellular debris.

In a further data set the test system is MCF-7 cells. Description: cytochrome c release by indirect immunofluorescence, MCF-7. The class given is cell-based. As to the method:
(§1) Mitochondria were isolated from CaP04-transfected 293T cells using 70 strokes (tight pestle) in a 1-ml Dounce homogenizer (Wheaton) in […] of CFS buffer as previously described (Thornberry, N. A., et al., 1998). Mitochondria were resuspended in H buffer (Thornberry, N. A., et al., 1998). Aliquots of […] of protein were analyzed on Laemmli SDS-15% PAGE gels and immunoblotted with anticytochrome c monoclonal antibody. Equal loading was ensured by probing the same blot with monoclonal antiactin. Results were visualized with enhanced chemiluminescence. Cytochrome c release was also determined via indirect immunofluorescence of transfected MCF-7 and 293T cells. Briefly, cells grown on coverslips were costained with Cy3-conjugated mouse anti-cytochrome c monoclonal antibody and an appropriate tag (HA for BNIP3 and FLAG for tBID), which was visualized with FITC-conjugated goat anti-rabbit IgG. Cells were also stained with Hoechst dye to determine apoptotic nuclear morphology. No fewer than 200 cells were scored for each sample. Fluorescence was visualized and captured using a Zeiss axiophot microscope equipped with a cooled charge-coupled device camera.

The next data set concerns 293T cells. Description: cytochrome c release by indirect immunofluorescence, 293T. The format is cell-based. As to the method:
as §1

In another data set the target is T1, BNIP3 (Homo sapiens, UniProt Q12983).
T1 construct: a pcDNA3-BNIP3 plasmid encoding the full length of BNIP3; expressed in transfected cells
T1 sequence (Q12983 whole entry): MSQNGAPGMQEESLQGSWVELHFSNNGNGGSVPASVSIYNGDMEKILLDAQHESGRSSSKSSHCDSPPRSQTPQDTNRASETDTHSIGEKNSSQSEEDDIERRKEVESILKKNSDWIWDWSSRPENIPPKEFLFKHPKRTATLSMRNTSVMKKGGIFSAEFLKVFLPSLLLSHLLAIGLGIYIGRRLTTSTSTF
Nature of the data set: BNIP3 induced cell death by exclusion of propidium iodide, co-transfection of BNIP3 DTM plasmid (FIG. 13). The class given is cell-based. The conditions noted are these: 1.0 to 1.0 μg plasmid ratio BNIP3 DTM to BNIP3. As to the method: Increasing concentrations of BNIP3 DTM plasmid (0.25 to 1.0 μg) were added to a constant amount of BNIP3 (1.0 μg). Cell death was determined by exclusion of propidium iodide. […] The BNIP3 DTM mutant contains amino acids 1-163, which is a deletion of the C-terminus of the protein that contains the transmembrane domain.

Data set [1] concerns primary hippocampal neurons. Description: primary hippocampal neurons transfected with BNIP3 plasmids, DNA condensation and survival. The format is cell-based, rat. The conditions noted are these: for BNIP3-positive neurons showing DNA condensation / DNA damage: transiently transfected hippocampal neurons. As to the method:
Transfection of cells was performed on day four in culture with LipofectAMINE 2000 […] according to manufacturer's protocol. Cells were transfected with a pcDNA3-BNIP3 plasmid encoding the full length of BNIP3 and a pcDNA3-BNIP3-163 plasmid that encodes a truncated form (the first 163 amino acids) of BNIP3 that lacks the functional transmembrane domain. Cells were used after 9 days in culture for excitotoxicity experiments. Neuronal cell death was assessed using trypan blue exclusion, morphological changes, and Hoescht 33342 staining. Morphological characteristics were examined on a Nikon Eclipse TE200 microscope and fluorescence was examined on a Zeiss Axioskop 2.
In vitro cell death was estimated using trypan blue exclusion. Cells were incubated in 0.4% trypan blue solution for 30 minutes and then counted on a bright-field microscope. Nonviable cells were distinguished by their dark blue staining. To examine nuclear morphology, nuclear DNA was stained with Hoescht 33342. DNA fragmentation was detected by TUNEL using an in situ cell death detection kit with fluorescein. Statistical analyses were by ANOVA with Tukey's post-test.

A further data set concerns ventricular myocytes. Nature of the data set: cell viability of ventricular myocytes, calcein acetoxymethyl ester / ethidium homodimer-1. The format is cell-based. The conditions noted are these: cells expressing BNIP3ΔTM. As to the method:
Ventricular myocytes were isolated from 1- to 2-day-old Sprague-Dawley rats (University of Manitoba, Winnipeg, Canada) and submitted to primary culture as reported (Kirshenbaum and Schneider, 1995). Myocytes were subjected to hypoxia for 24 hours in an air-tight chamber continually gassed with 95% N2-5% CO2, as previously reported (Moissac et al., 2000; Long et al., 1997; Tanaka et al., 1994). Adult rat hearts (n=3) were excised from adult rats (250 to 300 g) and subjected to global hypoxia for 1 hour on a modified Langendorff perfusion system with buffer continually gassed with 95% N2-5% CO2, as previously reported (Kirshenbaum, 1993). Heart failure was induced in rats by surgical ligation of the left anterior descending coronary artery, as previously reported (Dixon et al., 1992). Non-failing sham control hearts and those with heart failure were excised from animals 8 weeks after myocardial infarction. Hearts (n=3) were dissected to remove the infarcted scar tissue, and the left ventricular free wall was homogenized and analyzed by Western blot for BNIP3 expression. Animals were handled according to guidelines established by the University of Manitoba and Canadian Council on Animal Care.
The cDNAs for BNIP3 full-length (BNIP3) and carboxyl terminal transmembrane domain deletion mutant (BNIP3ΔTM) have been described previously (Vande et al., 2000). Recombinant adenoviruses encoding the full-length BNIP3 or transmembrane deletion mutant are designated AdBNIP3 or AdBNIP3ΔTM, respectively, and generated as reported previously (Kirshenbaum et al., 1993).
Cell viability was determined using the vital dyes 2 μmol/L calcein acetoxymethyl ester (green) to determine the number of living cells and 2 μmol/L ethidium homodimer-1 (red) (Molecular Probes) to identify the number of dead cells (Kirshenbaum and Schneider, 1995). The number of green cells versus red cells was used to determine changes in cell viability (Moissac et al., 2000). Cells were analyzed from at least n=3 independent myocyte isolations counting ≧200 cells for each condition tested. Data are expressed as mean±SE percent reduction from control.

A further data set has as its target T2, endogenous BNIP3 (Rattus norvegicus, UniProt A0ACM8Q210).
T2 construct: endogenous in cells; host or cells: neonatal rat ventricular myocytes, with or without adenovirus AdBNIP3ΔTM
Description: alkali extraction of mitochondria of hypoxic ventricular myocytes, BNIP3 western blot. The format is cell-based. The text has this:
For detection of BNIP3 protein, total cardiac cell lysate was subjected to Western blot analysis using a murine antibody directed toward BNIP3 (Vande et al., 2000). To isolate mitochondria from ventricular myocytes, cells were washed in HIM buffer (200 mmol/L mannitol, 70 mmol/L sucrose, 10 mmol/L HEPES-KOH, 1 mmol/L EGTA, pH 7.5). The crude cell pellet was disrupted and resuspended in HIM buffer containing 2.0% wt/vol bovine serum albumin. The homogenate was ultracentrifuged to obtain the mitochondrial fraction and resuspended in 200 mmol/L sucrose, 10 mmol/L HEPES-KOH, 1 mmol/L ATP, 5 mmol/L sodium succinate, 0.08 mmol/L ADP, and 2 mmol/L K2HPO4. To assess whether BNIP3 integrates into mitochondrial membranes during hypoxia, mitochondria were subjected to alkali extraction using 0.01 mol/L Na2CO3 (pH 11.5); this will dissociate and solubilize proteins that are not membrane integrated (Vande et al, 2000; Goping et al, 1998). Antibodies directed toward the following Bcl-2 family members were obtained from respective suppliers: Bad (Transduction Laboratories Inc), Bax (Santa Cruz Inc), and Bak and Bcl-2 (Pharmingen). Bound proteins were visualized using enhanced chemiluminescence (ECL) reagents (Amersham Pharmacia Inc).

T2 sequence (A0ACM8Q210 1-187): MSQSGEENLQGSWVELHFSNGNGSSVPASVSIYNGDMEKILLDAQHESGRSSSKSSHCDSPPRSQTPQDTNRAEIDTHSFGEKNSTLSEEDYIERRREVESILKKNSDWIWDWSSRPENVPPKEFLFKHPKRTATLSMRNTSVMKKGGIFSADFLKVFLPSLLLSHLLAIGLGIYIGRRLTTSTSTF

As to “BNIP3ΔTM: carboxyl terminal transmembrane deletion mutant of BNIP3, deletion of amino acids 164 to 194 (amino acids 1-163)”, the “increase in Ac-DEVD-pNA substrate cleavage after transfection” value in the data set with caspase 3-like proteases is recorded as “only marginal increases”. The “DiOC6 / HE staining compared to untreated controls” value in the data set with PT pore was “not affected”. For the same substance, the “cytochrome c release (in words)” value with MCF-7 cells is “no significant cytochrome c release”; in the data set with 293T cells, “only very low levels”. In the data set with BNIP3, the “cell death induced by BNIP3 (propidium iodide exclusion)” value is given as “background levels”. For the same substance, the “neurons surviving glutamate toxicity” value in data set [1] (glutamate 100 μM at day 9 in culture, 5 days after transfection) is given as 68%. Moreover, the results for the “BNIP3-positive neurons showing DNA condensation / DNA damage” value in data set [1] (listed as BNIP^3-163) and in data set [1] (listed as pcDNA3-BNIP3^3-163) were 17% and 24%, respectively. The “toxicity to myocytes (viability versus control cells)” value in the data set on ventricular myocytes is reported as “not toxic”. In addition, the “hypoxia-induced cell death of ventricular myocytes” value in the data set on ventricular myocytes (hypoxia 24 hours) is recorded as “markedly blunted”. The “hypoxia-induced mitochondrial integration of the endogenous BNIP3 protein” value with endogenous BNIP3 is “suppressed”.
